Assay results reported in US7786137B2, “Bicyclic derivatives as modulators of ion channels” (Vertex Pharmaceuticals Incorporated, priority 2005, dated 2010).

Biological target: NaV1.3 (Homo sapiens, UniProt Q9NY46)
Assay: VIPR optical membrane potential assay, NaV1.3 inhibition
Format: cell-based
Design: expressed in transfected cells; host or cells: HEK293
Details: activity against NaV 1.3 channel
Method: Antagonist properties of test compounds were assessed as follows. Cells expressing the NaV of interest were placed into microtiter plates. After an incubation period, the cells were stained with fluorescent dyes sensitive to the transmembrane potential. The test compounds were added to the microtiter plate. The cells were stimulated with either a chemical or electrical means to evoke a NaV dependent membrane potential change from unblocked channels, which was detected and measured with trans-membrane potential-sensitive dyes. Antagonists were detected as a decreased membrane potential response to the stimulus.
The following is an example of how NaV1.3 inhibition activity is measured using the optical membrane potential method#2. Other subtypes are performed in an analogous mode in a cell line expressing the NaV of interest.
HEK293 cells stably expressing NaV1.3 are plated into 96-well microtiter plates. After an appropriate incubation period, the cells are stained with the voltage sensitive dyes CC2-DMPE/DiSBAC2(3) as follows.
2× CC2-DMPE=20 μM CC2-DMPE: 10 mM CC2-DMPE is vortexed with an equivalent volume of 10% pluronic, followed by vortexing in required amount of HBSS containing 10 mM HEPES. Each cell plate will require 5 mL of 2× CC2-DMPE. 50 μL of 2× CC2-DMPE is to wells containing washed cells, resulting in a 10 μM final staining concentration. The cells are stained for 30 minutes in the dark at RT.
2× DISBAC2(3) with ABSC1=6 μM DISBAC2(3) and 1 mM ABSC1: The required amount of 10 mM DISBAC2(3) is added to a 50 ml conical tube and mixed with 1 μL 10% pluronic for each mL of solution to be made and vortexed together. Then HBSS/HEPES is added to make up 2× solution. Finally, the ABSC1 is added.
The 2× DiSBAC2(3) solution can be used to solvate compound plates. Note that compound plates are made at 2× drug concentration. Wash stained plate again, leaving residual volume of 50 μL. Add 50 μL/well of the 2× DiSBAC2(3) w/ABSC1. Stain for 30 minutes in the dark at RT.
The instrument comprises a microtiter plate handler, an optical system for exciting the coumarin dye while simultaneously recording the coumarin and oxonol emissions, a waveform generator, a current- or voltage-controlled amplifier, and a device for inserting electrodes in well. Under integrated computer control, this instrument passes user-programmed electrical stimulus protocols to cells within the wells of the microfilter plate.
Insert or use electrodes into each well to be assayed.
Use the current-controlled amplifier to deliver stimulation wave pulses for 3 s. Two seconds of pre-stimulus recording are performed to obtain the un-stimulated intensities. Five seconds of post-stimulation recording are performed to examine the relaxation to the resting state.
Data are analyzed and reported as normalized ratios of background-subtracted emission intensities measured in the 460 nm and 580 nm channels. Background intensities are then subtracted from each assay channel. Background intensities are obtained by measuring the emission intensities during the same time periods from identically treated assay wells in which there are no cells. The response as a function of time is then reported as the ratios obtained using the following formula: […]
The data is further reduced by calculating the initial (Ri) and final (Rf) ratios. These are the average ratio values during part or all of the pre-stimulation period, and during sample points during the stimulation period. The response to the stimulus ? =Rf/Ri is then calculated.
Control responses are obtained by performing assays in the presence of a compound with the desired properties (positive control), such as tetracaine, and in the absence of pharmacological agents (negative control). Responses to the negative (N) and positive (P) controls are calculated as above. The compound antagonist activity A is defined as:
[formula] where R is the ratio response of the test compound.

Chain of NaV1.3 (Q9NY46 whole entry): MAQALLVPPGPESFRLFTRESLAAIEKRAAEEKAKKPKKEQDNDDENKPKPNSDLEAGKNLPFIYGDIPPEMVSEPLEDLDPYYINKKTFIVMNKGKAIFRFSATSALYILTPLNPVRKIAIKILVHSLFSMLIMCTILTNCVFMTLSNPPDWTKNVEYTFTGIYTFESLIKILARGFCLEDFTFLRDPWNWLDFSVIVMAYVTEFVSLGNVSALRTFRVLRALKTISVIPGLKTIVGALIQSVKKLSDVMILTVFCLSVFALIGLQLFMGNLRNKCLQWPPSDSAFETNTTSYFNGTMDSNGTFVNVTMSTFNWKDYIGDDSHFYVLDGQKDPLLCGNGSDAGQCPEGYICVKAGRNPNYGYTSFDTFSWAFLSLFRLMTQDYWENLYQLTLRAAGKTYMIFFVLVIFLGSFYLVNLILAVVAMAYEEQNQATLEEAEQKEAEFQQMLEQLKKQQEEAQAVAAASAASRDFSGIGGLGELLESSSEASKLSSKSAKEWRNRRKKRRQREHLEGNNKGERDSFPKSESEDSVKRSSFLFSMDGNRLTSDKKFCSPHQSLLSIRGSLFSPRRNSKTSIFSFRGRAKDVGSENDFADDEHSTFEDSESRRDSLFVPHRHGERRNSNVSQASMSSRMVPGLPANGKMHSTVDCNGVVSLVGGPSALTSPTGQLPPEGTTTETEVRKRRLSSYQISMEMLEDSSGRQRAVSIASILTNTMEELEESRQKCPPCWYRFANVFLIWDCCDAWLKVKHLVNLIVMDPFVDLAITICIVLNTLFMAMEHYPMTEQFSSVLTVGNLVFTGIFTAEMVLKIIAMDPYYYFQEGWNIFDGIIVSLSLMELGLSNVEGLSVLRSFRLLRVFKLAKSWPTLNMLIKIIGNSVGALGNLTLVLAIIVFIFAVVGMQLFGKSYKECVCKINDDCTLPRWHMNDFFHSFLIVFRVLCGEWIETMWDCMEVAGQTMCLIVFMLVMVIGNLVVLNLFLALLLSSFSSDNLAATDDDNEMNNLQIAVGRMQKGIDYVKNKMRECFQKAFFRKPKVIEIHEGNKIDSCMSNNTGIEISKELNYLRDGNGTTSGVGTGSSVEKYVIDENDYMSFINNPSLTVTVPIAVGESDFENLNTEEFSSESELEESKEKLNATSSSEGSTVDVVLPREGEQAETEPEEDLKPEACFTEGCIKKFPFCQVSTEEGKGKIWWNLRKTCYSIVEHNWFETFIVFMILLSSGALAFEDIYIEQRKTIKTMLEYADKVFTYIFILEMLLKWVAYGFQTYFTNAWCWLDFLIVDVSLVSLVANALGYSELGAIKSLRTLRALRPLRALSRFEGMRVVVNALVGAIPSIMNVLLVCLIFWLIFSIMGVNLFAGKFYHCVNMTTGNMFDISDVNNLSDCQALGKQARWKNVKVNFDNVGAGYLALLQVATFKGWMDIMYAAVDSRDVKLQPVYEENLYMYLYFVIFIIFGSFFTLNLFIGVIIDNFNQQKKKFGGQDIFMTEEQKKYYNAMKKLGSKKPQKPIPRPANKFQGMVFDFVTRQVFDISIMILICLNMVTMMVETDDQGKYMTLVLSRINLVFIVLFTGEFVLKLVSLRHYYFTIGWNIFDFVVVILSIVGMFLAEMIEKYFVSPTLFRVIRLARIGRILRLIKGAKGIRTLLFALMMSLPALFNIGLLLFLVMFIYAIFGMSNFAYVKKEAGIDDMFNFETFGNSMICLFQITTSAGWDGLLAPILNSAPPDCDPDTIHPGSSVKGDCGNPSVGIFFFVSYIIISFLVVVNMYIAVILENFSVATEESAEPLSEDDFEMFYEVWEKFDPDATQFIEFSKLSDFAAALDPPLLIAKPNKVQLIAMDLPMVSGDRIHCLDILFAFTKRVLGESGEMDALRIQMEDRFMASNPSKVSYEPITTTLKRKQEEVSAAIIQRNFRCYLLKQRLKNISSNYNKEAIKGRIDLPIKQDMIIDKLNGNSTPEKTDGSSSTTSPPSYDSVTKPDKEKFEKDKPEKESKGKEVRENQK

| Compound | IC50 |
| --- | --- |
| O=C(Oc1ccc(Cl)cc1)N1CCc2cc(S(=O)(=O)Nc3nccs3)ccc21 [Compound 117] | > 5000 nM |
| O=C(COc1ccccc1Cl)N1CCc2cc(S(=O)(=O)Nc3nccs3)ccc21 [Compound 2] | < 2000 nM |
| O=C(COc1ccc(OC(F)(F)F)cc1)N1CCc2cc(S(=O)(=O)Nc3ncns3)ccc21 [Compound 167] | < 2000 nM |
| O=C(COc1cccc(Cl)c1)N1CCc2cc(S(=O)(=O)Nc3nccs3)ccc21 [Compound 131] | < 2000 nM |
| O=C(COc1cccc(Cl)c1)N1CCCc2cc(S(=O)(=O)Nc3ncns3)ccc21 [Compound 53] | 2000 to 5000 nM |
| C[C@H](C(=O)N1Cc2ccc(S(=O)(=O)Nc3ncns3)cc2C1)n1ccc2ccccc21 [Compound 207] | < 2000 nM |
| COc1ccc(NCC(=O)N2CCc3cc(S(=O)(=O)Nc4nccs4)ccc32)cc1F [Compound 184] | > 5000 nM |
| O=C(c1cc(Cl)ccc1Cl)N1CCc2cc(S(=O)(=O)Nc3nccs3)ccc21 [Compound 109] | < 2000 nM |
| CC(Oc1cccc(Cl)c1)C(=O)N1CCc2ccc(S(=O)(=O)Nc3nccs3)cc2C1 (centres unmarked) [Compound 174] | 2000 to 5000 nM |
| O=C(ON1Cc2ccc(S(=O)(=O)Nc3nccs3)cc2C1)c1ccc(Cl)cc1 [Compound 102] | < 2000 nM |
| CC(C)(C)c1ccc(OCC(=O)N2CCCc3cc(S(=O)(=O)Nc4ncns4)ccc32)cc1 [Compound 139] | < 2000 nM |
| O=C(CCn1ccc2cc(Cl)ccc21)N1Cc2ccc(S(=O)(=O)Nc3ncns3)cc2C1 [Compound 127] | < 2000 nM |
| O=C(COc1cccnc1)N1CCc2cc(S(=O)(=O)Nc3nccs3)ccc21 [Compound 129] | > 5000 nM |
| O=C(c1ccc(Cl)c(Cl)c1)N1CCc2cc(S(=O)(=O)Nc3nccs3)ccc21 [Compound 90] | < 2000 nM |
| O=C(COc1ccccc1)N1CCCc2cc(S(=O)(=O)Nc3ncns3)ccc21 [Compound 72] | > 5000 nM |
| O=C(c1ccccc1Cl)N1CCc2cc(S(=O)(=O)Nc3nccs3)ccc21 [Compound 40] | > 5000 nM |
| O=C(CN1CCCc2cc(Cl)ccc21)N1Cc2ccc(S(=O)(=O)Nc3ncns3)cc2C1 [Compound 120] | < 2000 nM |
| O=C(CCCOc1ccc(Cl)cc1Cl)N1CCc2cc(S(=O)(=O)Nc3ncccn3)ccc21 [Compound 156] | > 5000 nM |
| COc1cc(C(=O)N2CCc3cc(S(=O)(=O)Nc4nccs4)ccc32)ccc1C [Compound 178] | 2000 to 5000 nM |
| O=C(COc1ccccc1)N1CCc2cc(S(=O)(=O)Nc3nccs3)ccc21 [Compound 112] | < 2000 nM |

| Compound | IC50 |
| --- | --- |
| CC(C)(C)c1ccc(OCC(=O)N2Cc3ccc(S(=O)(=O)Nc4nccs4)cc3C2)cc1 [Compound 155] | < 2000 nM |
| O=C(c1cccc(Cl)c1)N1CCc2cc(S(=O)(=O)Nc3nccs3)ccc21 [Compound 50] | < 2000 nM |
| O=C(COc1ccc(F)c(Cl)c1)N1CCCc2cc(S(=O)(=O)Nc3nccs3)ccc21 [Compound 154] | < 2000 nM |
| O=C(c1ccccc1F)N1CCc2ccc(S(=O)(=O)Nc3nccs3)cc2C1 [Compound 123] | 2000 to 5000 nM |
| CC(Oc1ccccc1)C(=O)N1CCc2ccc(S(=O)(=O)Nc3nccs3)cc2C1 (centres unmarked) [Compound 8] | > 5000 nM |
| O=C(COc1ccnc2c(C(F)(F)F)cccc12)N1CCc2cc(S(=O)(=O)Nc3nccs3)ccc21 [Compound 194] | < 2000 nM |
| O=C(COc1ccc(Cl)cc1)N1CCc2cc(S(=O)(=O)Nc3nccs3)ccc21 [Compound 49] | < 2000 nM |
| O=C(CN1CCC(F)(F)C1)N1CCCc2cc(S(=O)(=O)Nc3nccs3)ccc21 [Compound 169] | > 5000 nM |
| Cc1ccc(OCC(=O)N2Cc3ccc(S(=O)(=O)Nc4nccs4)cc3C2)cc1C [Compound 190] | < 2000 nM |
| CC(C)(C)c1ccc(OCC(=O)N2CCc3ccc(S(=O)(=O)Nc4nccs4)cc3C2)cc1 [Compound 150] | > 5000 nM |
| Cc1ccc(OCC(=O)N2CCc3ccc(S(=O)(=O)Nc4nccs4)cc3C2)cc1 [Compound 25] | > 5000 nM |
| C[C@H](C(=O)N1Cc2ccc(S(=O)(=O)Nc3ncns3)cc2C1)n1ccc2c(F)cccc21 [Compound 94] | < 2000 nM |
| C[C@H](C(=O)N1CCc2cc(S(=O)(=O)Nc3nccs3)ccc21)n1ccc2ccccc21 [Compound 20] | < 2000 nM |
| O=C(COc1ccc(F)cc1)N1CCc2cc(S(=O)(=O)Nc3ncns3)ccc21 [Compound 42] | < 2000 nM |
| O=C(Cc1ccc(C(F)(F)F)cc1)N1CCc2cc(S(=O)(=O)Nc3nccs3)ccc21 [Compound 63] | < 2000 nM |
| O=C(CNC1CCC1)N1CCc2cc(S(=O)(=O)Nc3nccs3)ccc21 [Compound 161] | > 5000 nM |
| CN(CC(=O)N1CCc2cc(S(=O)(=O)Nc3nccs3)ccc21)c1ccncc1 [Compound 29] | > 5000 nM |
| O=C(CCn1ccc2cc(Cl)ccc21)N1CCc2cc(S(=O)(=O)Nc3ncns3)ccc21 [Compound 172] | < 2000 nM |
| Cc1cccc(CC(=O)N2CCc3cc(S(=O)(=O)Nc4nccs4)ccc32)c1 [Compound 43] | < 2000 nM |

More lines, now with the values ahead:

| IC50 | Compound |
| --- | --- |
| < 2000 nM | COc1ccc(CCC(=O)N2CCc3cc(S(=O)(=O)Nc4nccs4)ccc32)cc1 [Compound 159] |
| < 2000 nM | O=C(Cc1c(Cl)cccc1Cl)N1CCc2cc(S(=O)(=O)Nc3nccs3)ccc21 [Compound 136] |
| < 2000 nM | CC(C)(Oc1ccc(Cl)cc1)C(=O)N1CCc2cc(S(=O)(=O)Nc3nccs3)ccc21 [Compound 9] |
| < 2000 nM | O=C(CCc1ccccc1)n1ccc2cc(S(=O)(=O)Nc3nccs3)ccc21 [Compound 189] |
| > 5000 nM | O=C(c1ccc(F)cc1F)N1CCCc2cc(S(=O)(=O)Nc3nccs3)ccc21 [Compound 95] |
| > 5000 nM | Cc1ccccc1CNCCN1CCc2cc(S(=O)(=O)Nc3nccs3)ccc21 [Compound 99] |
| > 5000 nM | O=C(CN1CCCc2cc(Cl)ccc21)N1CCc2cc(S(=O)(=O)Nc3ccncn3)ccc21 [Compound 133] |
| < 2000 nM | O=C(CCn1ccc2cc(Cl)ccc21)N1Cc2ccc(S(=O)(=O)Nc3nccs3)cc2C1 [Compound 177] |
| > 5000 nM | O=C(c1cc(F)ccc1F)N1CCCc2cc(S(=O)(=O)Nc3nccs3)ccc21 [Compound 70] |
| < 2000 nM | CC(C)(C)c1ccc(OCC(=O)N2CCCc3cc(S(=O)(=O)Nc4nccs4)ccc32)cc1 [Compound 206] |
| 2000 to 5000 nM | O=C(COc1ccccc1)N1CCCc2cc(S(=O)(=O)Nc3nccs3)ccc21 [Compound 113] |
| > 5000 nM | O=C(CN1CCC(F)(F)CC1)N1CCc2cc(S(=O)(=O)Nc3nccs3)ccc21 [Compound 153] |
| < 2000 nM | O=C(c1ccc(Cl)cc1Cl)N1CCc2cc(S(=O)(=O)Nc3nccs3)ccc21 [Compound 116] |
| < 2000 nM | Cc1ccc(C(=O)n2ccc3cc(S(=O)(=O)Nc4nccs4)ccc32)cc1F [Compound 128] |
| > 5000 nM | O=C(Cn1ccc2cccc(Cl)c21)N1CCc2ccc(S(=O)(=O)Nc3nccs3)cc2C1 [Compound 69] |
| 2000 to 5000 nM | O=C(c1ccccc1C(F)(F)F)n1ccc2cc(S(=O)(=O)Nc3nccs3)ccc21 [Compound 176] |
| > 5000 nM | O=S(=O)(Nc1nccs1)c1ccc2c(c1)CCN2CCNc1nc2ccccc2s1 [Compound 157] |
| < 2000 nM | Cc1ccc(C(=O)N2CCc3cc(S(=O)(=O)Nc4nccs4)ccc32)cc1Cl [Compound 82] |
| < 2000 nM | O=C(c1cccc(Cl)c1)n1ccc2cc(S(=O)(=O)Nc3nccs3)ccc21 [Compound 86] |
| < 2000 nM | O=C(Cc1ccc(F)cc1F)N1CCc2cc(S(=O)(=O)Nc3nccs3)ccc21 [Compound 196] |
